Test system: NIH-3T3 tranfectant overexpressing mutant K-ras 4B
Test: Prenylation of K-ras 4B in intact cells (anti-Pan-ras immunoblot, densitometric scanning)
Assay type: cell-based
Settings: 72 hours at 37° C.; 0, 1.0, 5.0, 10.0 and 25 μm FTase inhibitor in the presence versus absence of 5,M of hydrolysed lovastatin
Procedure: The effectiveness of the FTase inhibitor 6-[(4-chloro-phenyl)-hydroxy-(3-methyl-3H-imidazol4-yl)-methyl]-4-(3-ethynyl-phenyl)-1-methyl-1H-quinolin-2-one on prenylation of K-ras 4B in intact cells is enhanced by a minimally effective dose of lovastatin. Semi-confluent monolayers of the NIH-3T3 tranfectant overexpressing mutant K-ras 4B are treated for 72 hours at 37° C. with increasing concentrations (0, 1.0 μm, 5.0 μm 10.0 μm and 25 μm) of 6-[(4-chloro-phenyl)-hydroxy-(3-methyl-3H-imidazol4-yl)-methyl]4-(3-ethynyl-phenyl)-1-methyl-1H-quinolin-2-one in the presence and absence of 5,M of hydrolysed lovastatin. […] The blots are incubated with peroxidase-conjugated secondary antibody, and the immunoblotted Ras protein are detected by enhanced chemiluminescence (Amersham Life Products, Arlington Heights, Ill.). Percent of prenylated Ras is determined by densitometric scanning using MasterScan 3.0 (Scanalytics, Billerica, Mass.). […]

## C#Cc1cccc(-c2cc(=O)n(C)c3ccc(C(O)(c4ccc(Cl)cc4)c4cncn4C)cc23)c1 (stereo not shown) [6-[(4-chloro-phenyl)-hydroxy-(3-methyl-3H-imidazol4-yl)-methyl]-4-(3-ethynyl-phenyl)-1-methyl-1H-quinolin-2-one]
  effectiveness on the inhibition of prenylation of K-ras 4B in intact cells (percent of prenylated Ras): enhanced

From patent US20020151563A1, “Farnesyl transferase inhibitors in combination with HMG CoA reductase inhibitors for the inhibition of abnormal cell growth” (Pfizer Inc., priority 2001, published 2002)
